Data from PMC8781629, “Identification of an Amylomaltase from the Halophilic Archaeon Haloquadratum walsbyi by Functional Metagenomics: Structural and Functional Insights” (Life, 2022).

Biological target: T1, Hw-A (H. walsbyi amylomaltase) (Haloquadratum walsbyi, UniProt Q18H55)
T1 construct: gene malQ; full length plus 21 vector residues incl; N-terminal His6 tag (p15TV-L), E. coli Origami (DE3), about 67 kDa, tag not reported cut
Test: starch transglycosylation, decrease of starch-iodine absorbance at […] nm
Type: biochemical
Details: acceptor substrate (best of those tested), 0.05%; donor 0.15% starch; 50 mM sodium phosphate pH 7, 1 M NaCl, 40 °C, 1 h

T1 sequence (Q18H55 entry or part of it): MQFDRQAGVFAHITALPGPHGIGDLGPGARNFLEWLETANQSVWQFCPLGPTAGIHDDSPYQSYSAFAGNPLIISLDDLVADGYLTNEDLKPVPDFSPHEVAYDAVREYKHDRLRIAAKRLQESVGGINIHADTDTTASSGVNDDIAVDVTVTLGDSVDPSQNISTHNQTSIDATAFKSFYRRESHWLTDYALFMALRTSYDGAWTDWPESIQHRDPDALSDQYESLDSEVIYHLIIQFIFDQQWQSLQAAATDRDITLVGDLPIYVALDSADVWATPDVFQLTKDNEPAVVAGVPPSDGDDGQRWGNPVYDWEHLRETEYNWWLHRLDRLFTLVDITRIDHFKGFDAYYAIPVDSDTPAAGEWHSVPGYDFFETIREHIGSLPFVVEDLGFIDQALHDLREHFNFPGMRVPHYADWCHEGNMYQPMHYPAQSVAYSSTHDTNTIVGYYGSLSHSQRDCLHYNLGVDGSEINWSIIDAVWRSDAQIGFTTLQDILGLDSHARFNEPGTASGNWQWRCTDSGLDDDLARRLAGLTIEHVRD

## OC[C@H]1O[C@H](O[C@H]2[C@H](O)[C@@H](O)[C@@H](O[C@H]3[C@H](O)[C@@H](O)C(O)O[C@@H]3CO)O[C@@H]2CO)[C@H](O)[C@@H](O)[C@@H]1O (stereo partly shown) [maltotriose]
  starch transglycosylation, decrease of starch-iodine absorbance at 620 nm: The assays indicated maltotriose as the best acceptor for starch degradation
